The values that follow come from PubChem BioAssay (NCI).

Each structure is given as a SMILES string.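 How tested: cells in 96-well plates exposed to compound for 48 hours at five concentrations. TGI is the concentration that stops growth completely.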

Common to all, as to assay: NCI anticancer screen, dose series, 48 h
Assay [1] deals with 786-0 renal.
In assay [2] the test system is A498 renal.
Assay [3] has as its system CCRF-CEM leukemia.
The subject of assay [4] is IGROV1 ovarian.
Assay [5] has as its system MDA-MB-231 breast.
Assay [6] relates to OVCAR-3 ovarian.
Assay [7] deals with OVCAR-5 ovarian.
The subject of assay [8] is SK-MEL-5 melanoma.
Assay [9] concerns SK-OV-3 ovarian.
Assay [10] deals with SN12C renal.
Assay [11] has as its system SNB-19 CNS.
In assay [12] the test system is UACC-257 melanoma.
Assay [13] relates to HCT-116 colon.
In assay [14] the test system is SR leukemia.
The subject of assay [15] is PC-3 prostate.

On to `COc1cc(C2c3cc4c(cc3OC(NCc3ccccc3)C2C)OCO4)cc(OC)c1OC` (stereo unspecified), for which the TGI is 44.1 µM in assay [1]; greater than 100 µM in assay [2]; 26.5 µM in assay [3]; greater than 36.5 µM in assay [4]; 2.06 µM in assay [5]; 3.1 µM in assay [6]. In addition, the TGI in [7] was greater than 100 µM; in [8], 1.78 µM; in assay [9], greater than 35.3 µM; in assay [10], greater than 52.1 µM; in assay [11] it was greater than 100 µM; in assay [12], greater than 100 µM.
Consider `CCCCc1ccc(Nc2nc(N)c3ncn(COCCO)c3n2)cc1`, for which the TGI was 65.4 µM in assay [1]; 88.7 µM in assay [2]; greater than 100 µM in assay [3]; 62.2 µM in assay [13]; 60.8 µM in assay [4]; 76.7 µM in assay [5]. The TGI in assay [6] is 40.3 µM; in assay [7], greater than 100 µM; in assay [8] it was 32.7 µM; in [9], 26.9 µM; in assay [10], greater than 100 µM; in assay [11], greater than 100 µM. The TGI in assay [14] was greater than 100 µM; in [12], 44.4 µM.
With `Cc1ccc(S(=O)(=O)c2c3[nH]c4ccccc4nc3n3c2nc2ccccc23)cc1`, the TGI in assay [1], in assay [2], in assay [3], in [13], in [4] and in [6] was greater than 100 µM throughout. Besides, the TGI in assay [7], in assay [8], in [9], in [10], in assay [11] and in assay [14] was greater than 100 µM throughout. The compound further showed a TGI in assay [12] greater than 100 µM.
As to `O=C(CC(C(=O)c1cccs1)c1ccsc1)c1ccco1` (stereo unspecified), the TGI in [1] was greater than 100 µM; in [2], 64 µM; in assay [3], 50.1 µM; in [13], 56.5 µM; in assay [4], greater than 100 µM; in assay [6], greater than 100 µM. For the same compound, the TGI in assay [7], in [8], in assay [9], in assay [10], in assay [14] and in [12] was greater than 100 µM each time.
On to `C=CCCCCCC(O)C(O)C/C=C\C/C=C\CC` (stereo unspecified), for which the TGI in [1], in assay [3], in assay [13], in assay [4], in assay [6] and in assay [7] was greater than 18.8 µM throughout. Also, the TGI in [8], in assay [9], in [10], in [11], in [14] and in assay [12] was greater than 18.8 µM throughout.
Take `O=C1c2c(nc3ccccc3c2-c2ccccc2)CN1Nc1ccccc1`: the TGI in assay [1], in assay [3], in assay [13], in [4], in assay [6] and in [7] was greater than 100 µM throughout. Further, the TGI in assay [8], in assay [9], in assay [10], in [14] and in [12] was greater than 100 µM in each case.
Regarding `C/C(=N\NC(=S)NNC(=S)N(C)c1ccccc1)c1ccccn1`, the TGI is greater than 47.2 µM in assay [1]; greater than 100 µM in [13]; greater than 100 µM in [5]; greater than 100 µM in [6]; greater than 100 µM in assay [7]; greater than 83.8 µM in [9]. Besides, the results for the TGI in assay [10], in assay [11] and in assay [12] were 12.8 µM, greater than 100 µM and greater than 100 µM, respectively.
On to `COc1ccc(NS(=O)c2ccc(OC)cc2)cc1` (stereo unspecified), for which the TGI in [1] was greater than 100 µM; in assay [3], greater than 100 µM; in assay [13], greater than 100 µM; in [4], 99.4 µM; in [5], greater than 100 µM; in [6] it was greater than 100 µM. Besides, the TGI in assay [7], in [8], in [10], in assay [11], in assay [14] and in assay [12] was greater than 100 µM in each case.
As for `N#CC(NNC(=O)c1ccccc1O)c1ccccc1` (stereo unspecified), the TGI in [1] was greater than 100 µM; in assay [3], greater than 100 µM; in assay [13], greater than 100 µM; in assay [4], greater than 100 µM; in [6], 85.9 µM; in assay [7] it was greater than 100 µM. For the same compound, the TGI is greater than 100 µM in [8]; greater than 100 µM in [9]; greater than 100 µM in [10]; 24.8 µM in [14]; greater than 100 µM in [12].
As to `COc1ccc(/C(C)=N/NC(=O)c2ccncc2)cc1OC`, the TGI in assay [1], in [2], in assay [3], in [4], in assay [5] and in assay [8] was greater than 10 µM throughout. Moreover, the TGI in assay [9], in assay [10], in assay [14] and in assay [12] was greater than 10 µM each time.
Consider `COc1ccc(CCc2ccccc2CC(=O)O)cc1`, for which the TGI in assay [1], in assay [2], in assay [3], in assay [13], in [4] and in assay [6] was greater than 100 µM each time. The TGI in assay [7], in assay [8], in [9], in [10], in assay [11] and in [14] was greater than 100 µM each time. In assay [12], the TGI was greater than 100 µM.
For the compound `CC1=NN(C(=O)c2ccc(Cl)cc2)C(=O)/C1=C/c1ccc(O)cc1`, the TGI in assay [1], in assay [2], in assay [3], in [13], in assay [4] and in assay [6] was greater than 100 µM in each case. In addition, the TGI in assay [7], in assay [8], in assay [9], in assay [10], in assay [11] and in [12] was greater than 100 µM throughout.
As to `N#CN1CCC=C(c2cc3ccccc3[nH]2)C1`, the TGI in assay [1] was greater than 448 µM; in assay [3] it was greater than 448 µM; in assay [13], greater than 448 µM; in assay [4] it was greater than 448 µM; in assay [6] it was 339 µM; in assay [7], greater than 448 µM. The TGI in assay [8], in [9], in assay [10], in assay [11], in assay [14] and in assay [12] was greater than 448 µM each time.
Take `O=C1NC(=NC2CCCCC2)C2(CCN(CCCC3(c4ccc(F)cc4)OCCO3)CC2)N1c1ccccc1`: the TGI in assay [1] was 30.2 µM; in assay [3] it was greater than 100 µM; in assay [13], 24.7 µM; in [6] it was 25.6 µM; in assay [7], 30.7 µM; in assay [15], 38.4 µM. In addition, the TGI in [8] stood at 28.2 µM; in assay [9], 42.7 µM; in [10] it was 37.5 µM; in assay [11], 35 µM; in assay [14], 31.4 µM; in assay [12], 28.7 µM.
With `Cc1cc(C)c(NS(=O)c2cccc(Cl)c2)c(C)c1` (stereo unspecified), the TGI in [1], in assay [2], in assay [3], in assay [13], in assay [6] and in assay [7] was greater than 100 µM in each case. Further, the TGI in assay [15], in assay [10], in assay [11], in assay [14] and in [12] was greater than 100 µM each time.
`COC1=CC(=O)[C@]2(C)[C@H](C1=O)C(C)[C@H]2c1ccccc1` (stereo partly specified): the TGI in [1], in [2], in assay [3], in assay [4], in [6] and in assay [7] was greater than 100 µM each time. The TGI in assay [8], in assay [9], in assay [11], in assay [14] and in assay [12] was greater than 100 µM each time.
Regarding `O=C1c2ccccc2-c2c1c(-c1ccccc1)c1n2C2(C(=O)c3ccccc3C2=O)C2C(=O)N(c3ccccc3)C(=O)C12` (stereo unspecified), the TGI is 68.9 µM in [1]; greater than 100 µM in [2]; 60 µM in [3]; 37.8 µM in assay [13]; greater than 100 µM in assay [4]; 51.1 µM in [6]. The TGI was greater than 100 µM in [7]; 81.6 µM in assay [15]; 35.3 µM in assay [8]; greater than 100 µM in assay [9]; 61.4 µM in assay [10]; greater than 100 µM in [11]. Also, the TGI in assay [12] is greater than 100 µM.
For the compound `O=C(NCC(C(=O)OCc1ccccc1)C(=O)OCc1ccccc1)OCc1ccccc1`, the TGI in [1], in assay [4], in assay [6], in [7], in assay [15] and in assay [8] was greater than 100 µM in each case. The TGI in assay [9], in assay [10], in assay [11], in assay [14] and in [12] was greater than 100 µM in each case.
